These results are taken from US12662479B2 (Foghorn Therapeutics Inc., priority 2020, dated 2026).

Structures are written as SMILES.

One assay deals with T1, HiBit-BRM fusion protein (Homo sapiens, UniProt P51531).
T1 construct: expressed in transfected cells
The assay is described as follows: HiBiT-BRM cell-based degradation assay (Nano-Glo HiBiT Lytic Detection, 24 h). The note with it: HeLa cells expressing HiBiT-BRM; for DC50: read-out: BRM HiBit Degradation IC50; for BRM HiBit Degradation Maximum measured: top dose 30 μM. Summed up:
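HeLa cells stably expressing HiBiT-BRM were dosed with compounds (10-point 3-fold dilutions, 30 μM final top dose, duplicate) for 24 h. HiBiT signal was read by lytic LgBiT complementation luminescence. Percent degradation was normalised to DMSO (high control) and 2 μM of a reference BRM/BRG1 degrader (low control).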

For assay [1], the target named is T2, HiBit-BRG1 fusion protein (Homo sapiens, UniProt P51532).
T2 construct: expressed in transfected cells
Kind of assay: HiBiT-BRG1 cell-based degradation assay (Nano-Glo HiBiT Lytic Detection, 24 h). Particulars: HeLa cells expressing HiBit-BRG1 and LgBit; for DC50: read-out: BRG1 HiBit Degradation IC50; for Dmax: HeLa, top dose 30 μM, read-out: BRG1 HiBit Degradation Maximum measured. Summed up: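 Stable HeLa line expressing HiBiT-BRG1 and LgBiT, seeded at 5000 cells/well; luminescence read after lytic Nano-Glo HiBiT reagent and 10 min shaking at RT. % degradation normalised between DMSO (high control) and 2 μM reference BRM/BRG1 degrader (low control).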
(The HiBiT peptide binds its large partner to form an active luciferase.)

T2 sequence (P51532 whole entry, the tested form may be a part): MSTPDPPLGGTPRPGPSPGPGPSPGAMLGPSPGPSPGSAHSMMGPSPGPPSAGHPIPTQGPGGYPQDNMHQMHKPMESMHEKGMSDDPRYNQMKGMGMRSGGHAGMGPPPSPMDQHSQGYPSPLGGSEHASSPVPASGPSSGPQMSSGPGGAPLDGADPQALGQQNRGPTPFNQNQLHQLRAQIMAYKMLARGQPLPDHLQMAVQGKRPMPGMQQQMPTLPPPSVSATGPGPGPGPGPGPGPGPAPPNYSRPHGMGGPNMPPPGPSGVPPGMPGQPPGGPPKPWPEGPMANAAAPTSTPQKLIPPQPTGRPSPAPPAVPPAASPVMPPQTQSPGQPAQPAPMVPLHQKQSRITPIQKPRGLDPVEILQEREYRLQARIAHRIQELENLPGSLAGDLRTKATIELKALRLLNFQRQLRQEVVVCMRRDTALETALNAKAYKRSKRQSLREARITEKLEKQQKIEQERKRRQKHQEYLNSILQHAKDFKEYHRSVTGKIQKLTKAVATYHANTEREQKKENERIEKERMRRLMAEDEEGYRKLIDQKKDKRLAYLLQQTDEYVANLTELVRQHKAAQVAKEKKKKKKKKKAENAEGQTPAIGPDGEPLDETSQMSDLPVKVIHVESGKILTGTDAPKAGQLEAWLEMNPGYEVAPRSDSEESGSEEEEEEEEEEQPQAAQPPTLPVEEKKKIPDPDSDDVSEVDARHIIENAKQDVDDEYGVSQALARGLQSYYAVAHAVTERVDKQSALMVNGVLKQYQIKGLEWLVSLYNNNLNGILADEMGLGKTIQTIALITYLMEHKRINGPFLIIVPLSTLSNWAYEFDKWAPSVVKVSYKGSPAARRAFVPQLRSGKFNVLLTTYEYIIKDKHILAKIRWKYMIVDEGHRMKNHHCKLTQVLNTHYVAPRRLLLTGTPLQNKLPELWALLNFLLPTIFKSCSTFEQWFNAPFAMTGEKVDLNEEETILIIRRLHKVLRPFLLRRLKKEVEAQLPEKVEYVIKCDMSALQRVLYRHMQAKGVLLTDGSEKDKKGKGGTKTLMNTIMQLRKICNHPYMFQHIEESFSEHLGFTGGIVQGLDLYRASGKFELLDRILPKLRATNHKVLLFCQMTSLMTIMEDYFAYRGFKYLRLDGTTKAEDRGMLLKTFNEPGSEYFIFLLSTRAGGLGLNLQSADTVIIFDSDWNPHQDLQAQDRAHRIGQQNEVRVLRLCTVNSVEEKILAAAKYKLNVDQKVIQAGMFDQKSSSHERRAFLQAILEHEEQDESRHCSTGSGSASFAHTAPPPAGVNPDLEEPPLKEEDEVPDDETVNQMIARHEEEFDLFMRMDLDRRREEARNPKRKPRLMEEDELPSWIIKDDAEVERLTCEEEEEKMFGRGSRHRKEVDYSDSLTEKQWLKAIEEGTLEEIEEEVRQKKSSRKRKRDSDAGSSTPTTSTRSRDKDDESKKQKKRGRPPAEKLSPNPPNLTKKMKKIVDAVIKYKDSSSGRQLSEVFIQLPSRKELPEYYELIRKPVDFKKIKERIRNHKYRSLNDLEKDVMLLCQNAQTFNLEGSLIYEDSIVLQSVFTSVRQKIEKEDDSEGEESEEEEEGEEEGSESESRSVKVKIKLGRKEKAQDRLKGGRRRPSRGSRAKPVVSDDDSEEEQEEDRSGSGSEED
T1 sequence (P51531 whole entry, the tested form may be a part): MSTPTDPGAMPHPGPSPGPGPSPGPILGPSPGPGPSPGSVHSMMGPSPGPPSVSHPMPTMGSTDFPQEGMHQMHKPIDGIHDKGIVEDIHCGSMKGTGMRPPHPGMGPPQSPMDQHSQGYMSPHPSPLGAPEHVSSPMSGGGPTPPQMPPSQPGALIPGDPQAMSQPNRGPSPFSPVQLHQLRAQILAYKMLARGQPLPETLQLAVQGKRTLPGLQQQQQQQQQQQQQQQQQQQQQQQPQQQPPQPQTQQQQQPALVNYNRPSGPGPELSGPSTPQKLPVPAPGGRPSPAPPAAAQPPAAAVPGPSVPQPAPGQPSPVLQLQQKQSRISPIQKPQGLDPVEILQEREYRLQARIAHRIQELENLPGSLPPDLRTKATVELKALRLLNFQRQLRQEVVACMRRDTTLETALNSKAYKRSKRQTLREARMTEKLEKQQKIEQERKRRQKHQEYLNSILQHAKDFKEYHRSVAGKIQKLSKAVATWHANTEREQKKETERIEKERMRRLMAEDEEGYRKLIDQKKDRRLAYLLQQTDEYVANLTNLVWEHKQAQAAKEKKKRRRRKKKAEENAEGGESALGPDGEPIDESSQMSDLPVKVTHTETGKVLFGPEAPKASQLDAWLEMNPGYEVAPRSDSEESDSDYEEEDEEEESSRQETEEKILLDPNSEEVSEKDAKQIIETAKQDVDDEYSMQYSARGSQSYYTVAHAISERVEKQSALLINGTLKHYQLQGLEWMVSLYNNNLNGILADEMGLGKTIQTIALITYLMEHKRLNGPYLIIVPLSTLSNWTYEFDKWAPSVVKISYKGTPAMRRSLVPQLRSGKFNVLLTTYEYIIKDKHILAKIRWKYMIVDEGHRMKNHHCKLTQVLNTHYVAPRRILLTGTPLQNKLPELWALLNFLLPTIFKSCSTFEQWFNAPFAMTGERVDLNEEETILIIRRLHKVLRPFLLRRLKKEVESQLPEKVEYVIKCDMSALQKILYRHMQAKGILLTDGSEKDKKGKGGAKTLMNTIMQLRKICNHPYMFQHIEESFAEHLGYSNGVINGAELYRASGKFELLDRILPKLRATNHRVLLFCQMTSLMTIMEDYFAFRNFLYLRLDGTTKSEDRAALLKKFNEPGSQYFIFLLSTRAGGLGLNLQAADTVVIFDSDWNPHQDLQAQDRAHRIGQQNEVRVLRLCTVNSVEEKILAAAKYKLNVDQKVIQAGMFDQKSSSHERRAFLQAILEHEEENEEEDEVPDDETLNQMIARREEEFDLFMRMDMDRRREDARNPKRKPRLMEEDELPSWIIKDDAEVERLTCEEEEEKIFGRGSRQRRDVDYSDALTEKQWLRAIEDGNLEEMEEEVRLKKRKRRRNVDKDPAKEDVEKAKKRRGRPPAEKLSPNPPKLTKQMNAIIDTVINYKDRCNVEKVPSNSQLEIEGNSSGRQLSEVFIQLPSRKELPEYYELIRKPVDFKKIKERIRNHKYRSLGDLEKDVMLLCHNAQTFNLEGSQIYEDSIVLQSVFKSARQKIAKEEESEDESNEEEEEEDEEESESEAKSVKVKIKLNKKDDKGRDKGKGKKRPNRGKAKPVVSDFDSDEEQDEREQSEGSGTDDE

Turning to `CN(CC(=O)NCCOCCOCCNc1ccc2c(c1)C(=O)N(C1CCC(=O)NC1=O)C2=O)c1cc(-c2cccc(-c3csc(NC(=O)CNC(=O)c4ccn(S(C)(=O)=O)c4)n3)c2)ccn1` (stereo not shown) [Compound 93], at HiBit-BRM fusion protein, the DC50 is more than 10 µM and the “BRM HiBit Degradation Maximum measured” value is “C (‘C’ = Maximum degradation <50%)”. In addition, in assay [1], the DC50 was more than 10 µM and the Dmax was less than 50%.

On to `CS(=O)(=O)n1ccc(C(=O)N[C@@H](COCc2ccc(C(=O)NCCCCS(=O)(=O)CCCNc3cccc4c3C(=O)N(C3CCC(=O)NC3=O)C4=O)cc2)C(=O)Nc2nc(-c3ccccc3)cs2)c1` (stereo partly drawn) [Compound 248, N-[4-(3-[[2-(2,6-dioxopiperidin-3-yl)-1,3-dioxoisoindol-4-yl]amino]propanesulfonyl)butyl]-4-[[(2S)-2-[(1-methanesulfonylpyrrol-3-yl)formamido]-2-[(4-phenyl-1,3-thiazol-2-yl)carbamoyl]ethoxy]methyl]benzamide], for which, at HiBit-BRM fusion protein, the DC50 lay in the range of 1 to 10 µM; the “BRM HiBit Degradation Maximum measured” value is “B (‘B’ = Maximum degradation ≥50% and ≤75%)”. Further, in assay [1], the DC50 fell in the range of 0.1 to 1 µM and the Dmax is 50 to 75%.

`CS(=O)(=O)n1ccc(C(=O)N[C@@H](COCc2ccc(CNC(=O)CCOCCOCCOc3cccc4c3C(=O)N(C3CCC(=O)NC3=O)C4=O)cc2)C(=O)Nc2nc(-c3ccccc3)cs2)c1` (stereo partly drawn) [Compound 182, 3-[2-(2-[[2-(2,6-dioxopiperidin-3-yl)-1,3-dioxoisoindol-4-yl]oxy]ethoxy)ethoxy]-N-[(4-[[(2S)-2-[(1-methanesulfonylpyrrol-3-yl)formamido]-2-[(4-phenyl-1,3-thiazol-2-yl)carbamoyl]ethoxy]methyl]phenyl)methyl]propanamide]: on HiBit-BRM fusion protein, the DC50 was more than 10 µM and the “BRM HiBit Degradation Maximum measured” value is on record as “C (‘C’ = Maximum degradation <50%)”. Also, in assay [1], the DC50 is more than 10 µM and the Dmax is less than 50%.

In the case of `CS(=O)(=O)n1ccc(C(=O)N[C@@H](CCOCCCC(=O)NCCOCCOCCOCCNC(=O)COc2cccc3c2C(=O)N(C2CCC(=O)NC2=O)C3=O)C(=O)Nc2nc(-c3ccccc3)cs2)c1` (stereo partly drawn) [Compound 258, (2S)-4-(3-[[2-(2-[2-[2-(2-[[2-(2,6-dioxopiperidin-3-yl)-1,3-dioxoisoindol-4-yl]oxy]acetamido)ethoxy]ethoxy]ethoxy)ethyl]carbamoyl]propoxy)-2-[(1-methanesulfonylpyrrol-3-yl)formamido]-N-(4-phenyl-1,3-thiazol-2-yl)butanamide], at HiBit-BRM fusion protein, the DC50 was more than 10 µM and the “BRM HiBit Degradation Maximum measured” value is given as “C (‘C’ = Maximum degradation <50%)”. Moreover, in assay [1], the DC50 is more than 10 µM and the Dmax was less than 50%.

Turning to `CS(=O)(=O)n1ccc(C(=O)N[C@@H](COCc2ccc(C(=O)NCCCC#Cc3cccc4c3C(=O)N(C3CCC(=O)NC3=O)C4=O)cc2)C(=O)Nc2nc(-c3ccccc3)cs2)c1` (stereo partly drawn) [Compound 205, N-[5-[2-(2,6-dioxopiperidin-3-yl)-1,3-dioxoisoindol-4-yl]pent-4-yn-1-yl]-4-[[(2S)-2-[(1-methanesulfonylpyrrol-3-yl)formamido]-2-[(4-phenyl-1,3-thiazol-2-yl)carbamoyl]ethoxy]methyl]benzamide], on HiBit-BRM fusion protein, the DC50 was more than 10 µM and the “BRM HiBit Degradation Maximum measured” value is “C (‘C’ = Maximum degradation <50%)”. In addition, in assay [1], the DC50 was more than 10 µM and the Dmax is less than 50%.

Turning to `Cc1ncsc1-c1ccc(CNC(=O)[C@@H]2C[C@@H](O)CN2C(=O)[C@@H](NC(=O)CCCCCCCCCC(=O)NCc2cccc(-c3cccc(-c4csc(NC(=O)CNC(=O)c5ccn(S(C)(=O)=O)c5)n4)c3)c2)C(C)(C)C)cc1` [Compound 65, N1-((S)-1-((2S,4R)-4-hydroxy-2-((4-(4-methylthiazol-5-yl)benzyl)carbamoyl)pyrrolidin-1-yl)-3,3-dimethyl-1-oxobutan-2-yl)-N11-((3′-(2-(2-(1-(methylsulfonyl)-1H-pyrrole-3-carboxamido)acetamido)thiazol-4-yl)-[1,1′-biphenyl]-3-yl)methyl)undecanediamide], at HiBit-BRM fusion protein, the DC50 was less than 0.1 µM and the “BRM HiBit Degradation Maximum measured” value is recorded as “A (‘A’ = Maximum degradation >75%)”. In addition, in assay [1], the DC50 is less than 0.1 µM and the Dmax is more than 75%.

On to `CS(=O)(=O)n1ccc(C(=O)NCC(=O)Nc2nc(C3CCCN(C(=O)CCCCOc4cccc5c4C(=O)N(C4CCC(=O)NC4=O)C5=O)C3)cs2)c1` (stereo not shown) [Compound 147, N-{4-[1-(5-{[2-(2,6-dioxopiperidin-3-yl)-1,3-dioxo-2,3-dihydro-1H-isoindol-4-yl]oxy}pentanoyl)piperidin-3-yl]-1,3-thiazol-2-yl}-2-[(1-methanesulfonyl-1H-pyrrol-3-yl)formamido]acetamide], for which, at HiBit-BRM fusion protein, the DC50 is more than 10 µM and the “BRM HiBit Degradation Maximum measured” value was “C (‘C’ = Maximum degradation <50%)”. For the same compound, in assay [1], the DC50 is more than 10 µM and the Dmax is less than 50%.

Take `CS(=O)(=O)n1ccc(C(=O)NCC(=O)Nc2nc(-c3cccc(-c4cccc(CNC(=O)CCCCCCCCNc5cccc6c5C(=O)N(C5CCC(=O)NC5=O)C6=O)c4)c3)cs2)c1` (stereo not shown) [Compound 20, N-(2-((4-(3′-((9-((2-(2,6-dioxopiperidin-3-yl)-1,3-dioxoisoindolin-4-yl)amino)nonanamido)methyl)-[1,1′-biphenyl]-3-yl)thiazol-2-yl)amino)-2-oxoethyl)-1-(methylsulfonyl)-1H-pyrrole-3-carboxamide]: on HiBit-BRM fusion protein, the DC50 was more than 10 µM and the “BRM HiBit Degradation Maximum measured” value is “C (‘C’ = Maximum degradation <50%)”. Moreover, in assay [1], the DC50 was more than 10 µM and the Dmax was in the range of 50 to 75%.

As for `CS(=O)(=O)n1ccc(C(=O)N[C@@H](CCCCNC(=O)CCOCCOCCOc2ccc3c(c2)C(=O)N(C2CCC(=O)NC2=O)C3=O)C(=O)Nc2nc(-c3ccccc3)cs2)c1` (stereo partly drawn) [Compound 291, (2S)-6-[3-[2-(2-[[2-(2,6-dioxopiperidin-3-yl)-1,3-dioxoisoindol-5-yl]oxy]ethoxy)ethoxy]propanamido]-2-[(1-methanesulfonylpyrrol-3-yl)formamido]-N-(4-phenyl-1,3-thiazol-2-yl)hexanamide], on HiBit-BRM fusion protein, the DC50 is more than 10 µM and the “BRM HiBit Degradation Maximum measured” value is listed as “C (‘C’ = Maximum degradation <50%)”. Besides, in assay [1], the DC50 was more than 10 µM and the Dmax is less than 50%.

For the compound `CS(=O)(=O)n1ccc(C(=O)NCC(=O)Nc2nc(-c3cccc(-c4ccnc(OCCNC(=O)C5CC5CNC(=O)COc5ccc6c(c5)C(=O)N(C5CCC(=O)NC5=O)C6=O)c4)c3)cs2)c1` (stereo not shown) [Compound 80, N-[2-[[4-[3-[2-[2-[[2-[[[2-[2-(2,6-dioxo-3-piperidyl)-1,3-dioxoisoindolin-5-yl]oxyacetyl]amino]methyl]cyclopropanecarbonyl]amino]ethoxy]-4-pyridyl]phenyl]thiazol-2-yl]amino]-2-oxoethyl]-1-methylsulfonyl-pyrrole-3-carboxamide], on HiBit-BRM fusion protein, the DC50 is more than 10 µM and the “BRM HiBit Degradation Maximum measured” value was “C (‘C’ = Maximum degradation <50%)”. Also, in assay [1], the DC50 was more than 10 µM and the Dmax was less than 50%.
